4 compounds from ChEMBL document CHEMBL5247647, “Phenothiazine-Based LSD1 Inhibitor Promotes T-Cell Killing Response of Gastric Cancer Cells” (J Med Chem, 2023) can be followed below.

As usually defined, the IC50 is the concentration that gives 50% inhibition.

Each structure is given as a SMILES string.

The assay has as its target Lysine-specific histone demethylase 1A (Homo sapiens, UniProt O60341). The experiment in a line: Inhibition of recombinant LSD1 (unknown origin) expressed in Escherichia coli BL21 (DE3) using H3K4me2 peptide as substrate incubated for 30 mins by fluorescence based microplate reader assay.
On to `CN1CCN(CCCN2c3ccccc3Sc3ccccc32)CC1` [PERAZINE], for which the IC50 is 0.909 µM.

On to `CN(C)CCCN1c2ccccc2Sc2ccc(C(F)(F)F)cc21` [TRIFLUPROMAZINE], for which the IC50 was over 10 µM.

In the case of `CN(C)CCCN1c2ccccc2Sc2ccc(Cl)cc21` [CHLORPROMAZINE], the IC50 was 5.14 µM.

As for `CN(C)CCCN1c2ccccc2Sc2ccccc21` [PROMAZINE], the IC50 was 4.71 µM.
